One experiment concerns MV4;11 cells. The experiment in a line: Cell viability assay (CellTiter-Glo) in MV4;11 cells. It is filed as cell-based. The following applies: MV4;11 cells, three days, read-out: MV4. In outline: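 5000 cells/well in RPMI 1640 or DMEM with 10% FBS, treated with 8- or 12-point 3-fold compound dilutions, with or without gilteritinib (10 nM for MV4;11, 20 nM for MOLM-13). Viability by CellTiter-Glo after three days; IC50 by nonlinear least-squares regression.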

In another experiment the test system is MOLM-13 cells. The experiment in a line: Cell viability assay (CellTiter-Glo) in MOLM-13 cells. The settings on record: MOLM-13 cells, three days. It is filed as cell-based. (In ATP-based viability assays light output follows the ATP content of the culture.)
The mark [1] stands for this setting: Homo sapiens, MV4-11, 72 h, compound alone, 11 IC50.
Where [2] appears, read: with 10 nM gilteritinib, 11 IC50 (nM) + 10 nM Gil.
[3] abbreviates: Homo sapiens, 72 h, compound alone, read-out: MOLM-13 IC50.
Setting [4] is: with gilteritinib, read-out: MOLM-13 IC50 (nM) + 10 nM Gil.

Here are results for 18 molecules from patent publication US20250221988A1 (Cullgen (Shanghai), Inc., priority 2022, published 2025).

Read-outs that look alike come from different tables or passages of the source.

Turning to `O=C1CCC(N2C(=O)c3ccc(NCCC[C@H]4C[C@H](n5cc(-c6nccc7c6NCCC7)c(C6CC6)n5)C4)cc3C2=O)C(=O)N1` (stereo partly drawn) [GS-685, 5-((3-(Trans-3-(3-cyclopropyl-4-(1,2,3,4-tetrahydro-1,7-naphthyridin-8-yl)-1H-pyrazol-1-yl)cyclobutyl)propyl)amino)-2-(2,6-dioxopiperidin-3-yl)isoindoline-1,3-dione], the IC50 was greater than 1000 nM in the experiment on MV4;11 cells (setting [1]), 100 to 1000 nM with MV4;11 cells (setting [2]), greater than 1000 nM in the experiment on MOLM-13 cells (setting [3]) and 100 to 1000 nM in the experiment with MOLM-13 cells (setting [4]).

Turning to `O=C1CCC(N2C(=O)c3ccc(NC[C@H]4C[C@H](n5cc(-c6ncc(F)cc6C6CCNCC6)c(C6CC6)n5)C4)cc3C2=O)C(=O)C1` (stereo partly drawn) [GS-686, 5-(((Trans-3-(3-cyclopropyl-4-(5-fluoro-3-(piperidin-4-yl)pyridin-2-yl)-1H-pyrazol-1-yl)cyclobutyl)methyl)amino)-2-(2,4-dioxocyclohexyl)isoindoline-1,3-dione], the IC50 is greater than 1000 nM in the experiment with MV4;11 cells (setting [1]), 100 to 1000 nM in the experiment on MV4;11 cells (setting [2]), greater than 1000 nM in the experiment on MOLM-13 cells (setting [3]) and 100 to 1000 nM in the experiment on MOLM-13 cells (setting [4]).

On to `Cn1ccnc1-c1cn([C@H]2C[C@H](CNc3ccc4c(c3)C(=O)N(C3CCC(=O)NC3=O)C4=O)C2)nc1C1CC1` (stereo partly drawn) [GS-687, 5-(((Trans-3-(3-cyclopropyl-4-(1-methyl-1H-imidazol-2-yl)-1H-pyrazol-1-yl)cyclobutyl)methyl)amino)-2-(2,6-dioxopiperidin-3-yl)isoindoline-1,3-dione], for which the IC50 in the experiment with MV4;11 cells (setting [1]) was greater than 1000 nM; with MV4;11 cells (setting [2]) it was 100 to 1000 nM; in the experiment with MOLM-13 cells (setting [3]) it was greater than 1000 nM; in the experiment with MOLM-13 cells (setting [4]), 100 to 1000 nM.

For the molecule `Cc1c2ccccc2nn1[C@H]1C[C@H](CNc2ccc3c(c2)C(=O)N(C2CCC(=O)NC2=O)C3=O)C1` (stereo partly drawn) [GS-688, 2-(2,6-Dioxopiperidin-3-yl)-5-(((trans-3-(3-methyl-2H-indazol-2-yl)cyclobutyl)methyl)amino)isoindoline-1,3-dione], the IC50 in the experiment with MV4;11 cells (setting [1]) is greater than 1000 nM; in the experiment on MOLM-13 cells (setting [3]) it was greater than 1000 nM; in the experiment with MOLM-13 cells (setting [4]), 100 to 1000 nM.

With `Cc1nn([C@H]2C[C@H](CNc3ccc4c(c3)C(=O)N(C3CCC(=O)NC3=O)C4=O)C2)c2ccccc12` (stereo partly drawn) [GS-689, 2-(2,6-Dioxopiperidin-3-yl)-5-(((trans-3-(3-methyl-1H-indazol-1-yl)cyclobutyl)methyl)amino)isoindoline-1,3-dione], the IC50 in the experiment with MV4;11 cells (setting [1]) lay in the range of 10 to 100 nM; in the experiment with MV4;11 cells (setting [2]) it was 10 to 100 nM; with MOLM-13 cells (setting [3]), 100 to 1000 nM; with MOLM-13 cells (setting [4]) it was 10 to 100 nM.

As to `Cn1nccc1-c1cn([C@H]2C[C@H](CNc3ccc4c(c3)C(=O)N(C3CCC(=O)NC3=O)C4=O)C2)nc1C1CC1` (stereo partly drawn) [GS-690, 5-(((Trans-3-(3′-cyclopropyl-2-methyl-1′H,2H-[3,4′-bipyrazol]-1′-yl)cyclobutyl)methyl)amino)-2-(2,6-dioxopiperidin-3-yl)isoindoline-1,3-dione], the IC50 in the experiment on MV4;11 cells (setting [1]) and in the experiment on MOLM-13 cells (setting [3]) was greater than 1000 nM each time.

Take `Cn1cncc1-c1cn([C@H]2C[C@H](CNc3ccc4c(c3)C(=O)N(C3CCC(=O)NC3=O)C4=O)C2)nc1C1CC1` (stereo partly drawn) [GS-691, 5-(((Trans-3-(3-cyclopropyl-4-(1-methyl-1H-imidazol-5-yl)-1H-pyrazol-1-yl)cyclobutyl)methyl)amino)-2-(2,6-dioxopiperidin-3-yl)isoindoline-1,3-dione]: the IC50 with MV4;11 cells (setting [1]) and in the experiment on MOLM-13 cells (setting [3]) was greater than 1000 nM in each case.

With `Cc1cccc2cnn([C@H]3C[C@H](CNc4ccc5c(c4)C(=O)N(C4CCC(=O)NC4=O)C5=O)C3)c12` (stereo partly drawn) [GS-693, 2-(2,6-Dioxopiperidin-3-yl)-5-(((trans-3-(7-methyl-1H-indazol-1-yl)cyclobutyl)methyl)amino)isoindoline-1,3-dione], the IC50 in the experiment on MV4;11 cells (setting [1]) was greater than 1000 nM; with MV4;11 cells (setting [2]), 100 to 1000 nM; in the experiment with MOLM-13 cells (setting [3]), greater than 1000 nM; in the experiment on MOLM-13 cells (setting [4]) it was 100 to 1000 nM.

For `Cc1cccc2cn([C@H]3C[C@H](CNc4ccc5c(c4)C(=O)N(C4CCC(=O)NC4=O)C5=O)C3)nc12` (stereo partly drawn) [GS-694, 2-(2,6-Dioxopiperidin-3-yl)-5-(((trans-3-(7-methyl-2H-indazol-2-yl)cyclobutyl)methyl)amino)isoindoline-1,3-dione], the IC50 was greater than 1000 nM in the experiment with MV4;11 cells (setting [1]), 100 to 1000 nM in the experiment with MV4;11 cells (setting [2]), greater than 1000 nM in the experiment with MOLM-13 cells (setting [3]) and 100 to 1000 nM with MOLM-13 cells (setting [4]).

On to `Cn1ccc2nc(-c3cn([C@H]4C[C@H](CNc5ccc6c(c5)C(=O)N(C5CCC(=O)NC5=O)C6=O)C4)nc3C3CC3)ccc21` (stereo partly drawn) [GS-695, 5-(((Trans-3-(3-cyclopropyl-4-(1-methyl-1H-pyrrolo[3,2-b]pyridin-5-yl)-1H-pyrazol-1-yl)cyclobutyl)methyl)amino)-2-(2,6-dioxopiperidin-3-yl)isoindoline-1,3-dione], for which the IC50 with MV4;11 cells (setting [1]) was 10 to 100 nM; in the experiment on MV4;11 cells (setting [2]), less than 10 nM; in the experiment with MOLM-13 cells (setting [3]), 10 to 100 nM; in the experiment on MOLM-13 cells (setting [4]), less than 10 nM.

For `CC(C)n1ccc2nc(-c3cn([C@H]4C[C@H](CNc5ccc6c(c5)C(=O)N(C5CCC(=O)NC5=O)C6=O)C4)nc3C3CC3)ccc21` (stereo partly drawn) [GS-696, 5-(((Trans-3-(3-cyclopropyl-4-(1-isopropyl-1H-pyrrolo[3,2-b]pyridin-5-yl)-1H-pyrazol-1-yl)cyclobutyl)methyl)amino)-2-(2,6-dioxopiperidin-3-yl)isoindoline-1,3-dione], the IC50 was 100 to 1000 nM with MV4;11 cells (setting [1]), 10 to 100 nM in the experiment on MV4;11 cells (setting [2]), greater than 1000 nM with MOLM-13 cells (setting [3]) and 10 to 100 nM with MOLM-13 cells (setting [4]).

Regarding `Cn1ncc2nc(-c3cn([C@H]4C[C@H](CNc5ccc6c(c5)C(=O)N(C5CCC(=O)NC5=O)C6=O)C4)nc3C3CC3)ccc21` (stereo partly drawn) [GS-699, 5-(((Trans-3-(3-cyclopropyl-4-(1-methyl-1H-pyrazolo[4,3-b]pyridin-5-yl)-1H-pyrazol-1-yl)cyclobutyl)methyl)amino)-2-(2,6-dioxopiperidin-3-yl)isoindoline-1,3-dione], the IC50 lay within 10 to 100 nM in the experiment on MV4;11 cells (setting [1]), 10 to 100 nM with MV4;11 cells (setting [2]), 100 to 1000 nM in the experiment with MOLM-13 cells (setting [3]) and 10 to 100 nM in the experiment on MOLM-13 cells (setting [4]).

Consider `CC(C)n1ncc2nc(-c3cn([C@H]4C[C@H](CNc5ccc6c(c5)C(=O)N(C5CCC(=O)NC5=O)C6=O)C4)nc3C3CC3)ccc21` (stereo partly drawn) [GS-700, 5-(((Trans-3-(3-cyclopropyl-4-(1-isopropyl-1H-pyrazolo[4,3-b]pyridin-5-yl)-1H-pyrazol-1-yl)cyclobutyl)methyl)amino)-2-(2,6-dioxopiperidin-3-yl)isoindoline-1,3-dione], for which the IC50 in the experiment with MV4;11 cells (setting [1]) was in the range of 100 to 1000 nM; with MV4;11 cells (setting [2]), 10 to 100 nM; in the experiment on MOLM-13 cells (setting [3]) it was 100 to 1000 nM; in the experiment with MOLM-13 cells (setting [4]) it was 10 to 100 nM.

As for `O=C1CCC(N2C(=O)c3ccc(NC[C@H]4C[C@H](n5cc(C6CCC(O)CC6)c(C6CC6)n5)C4)cc3C2=O)C(=O)N1` (stereo partly drawn) [GS-701, 5-(((Trans-3-(3-cyclopropyl-4-(4-hydroxycyclohexyl)-1H-pyrazol-1-yl)cyclobutyl)methyl)amino)-2-(2,6-dioxopiperidin-3-yl)isoindoline-1,3-dione], the IC50 with MV4;11 cells (setting [1]) was 10 to 100 nM; in the experiment with MV4;11 cells (setting [2]), 10 to 100 nM; in the experiment with MOLM-13 cells (setting [3]) it was 100 to 1000 nM; in the experiment on MOLM-13 cells (setting [4]) it was 10 to 100 nM.

Turning to `O=C1CCC(N2C(=O)c3ccc(NCC4CC(n5cc(-c6cnc7c(NCC(O)CO)cccc7n6)c(C6CC6)n5)C4)cc3C2=O)C(=O)N1` (stereo not drawn) [GS-702, 5-(((trans-3-(3-cyclopropyl-4-(5-((2,3-dihydroxypropyl)amino)quinoxalin-2-yl)-1-pyrazol-1-yl)cyclobutyl)methyl)amino)-2-(2,6-dioxopiperidin-3-yl)isoindoline-1,3-dione], the IC50 in the experiment on MV4;11 cells (setting [1]), with MV4;11 cells (setting [2]), with MOLM-13 cells (setting [3]) and in the experiment on MOLM-13 cells (setting [4]) was less than 10 nM throughout.

For the molecule `O=C1CCC(N2C(=O)c3ccc(NC[C@H]4C[C@H](n5cc(C6CCCC(O)C6)c(C6CC6)n5)C4)cc3C2=O)C(=O)N1` (stereo partly drawn) [GS-703, 5-(((Trans-3-(3-cyclopropyl-4-(3-hydroxycyclohexyl)-1H-pyrazol-1-yl)cyclobutyl)methyl)amino)-2-(2,6-dioxopiperidin-3-yl)isoindoline-1,3-dione], the IC50 in the experiment with MV4;11 cells (setting [1]) lay within 10 to 100 nM; with MV4;11 cells (setting [2]) it was 10 to 100 nM; with MOLM-13 cells (setting [3]) it was 100 to 1000 nM; in the experiment on MOLM-13 cells (setting [4]), 10 to 100 nM.

As to `O=C1CCC(N2C(=O)c3ccc(NC[C@H]4C[C@H](n5cc(-c6ccc7c(n6)CCC7O)c(C6CC6)n5)C4)cc3C2=O)C(=O)N1` (stereo partly drawn) [GS-705, 5-(((Trans-3-(3-cyclopropyl-4-(5-hydroxy-6,7-dihydro-5H-cyclopenta[b]pyridin-2-yl)-1H-pyrazol-1-yl)cyclobutyl)methyl)amino)-2-(2,6-dioxopiperidin-3-yl)isoindoline-1,3-dione], the IC50 with MV4;11 cells (setting [1]) was greater than 1000 nM; in the experiment on MV4;11 cells (setting [2]), 100 to 1000 nM; in the experiment with MOLM-13 cells (setting [3]) it was 100 to 1000 nM; with MOLM-13 cells (setting [4]) it was 100 to 1000 nM.

As for `NC1CCN(c2ccc3ncc(-c4cn([C@H]5C[C@H](CNc6ccc7c(c6)C(=O)N(C6CCC(=O)NC6=O)C7=O)C5)nc4C4CC4)nc3c2)C1` (stereo partly drawn) [GS-706, 5-(((Trans-3-(4-(7-(3-aminopyrrolidin-1-yl)quinoxalin-2-yl)-3-cyclopropyl-1H-pyrazol-1-yl)cyclobutyl)methyl)amino)-2-(2,6-dioxopiperidin-3-yl)isoindoline-1,3-dione], the IC50 with MV4;11 cells (setting [1]) was 10 to 100 nM; in the experiment with MV4;11 cells (setting [2]), less than 10 nM; in the experiment with MOLM-13 cells (setting [3]) it was 10 to 100 nM; with MOLM-13 cells (setting [4]) it was less than 10 nM.
